Structures are written as SMILES.

The test deals with hESCs (CyT203 p36). The conditions noted are these: EDTA 0.075 mM, PBS−/− wash, about 18 hr, activin A 100 ng/ml and Wnt3a 25 ng/ml, RPMI without FBS. Here is the method: Cell cultures and culture conditions were substantially similar to that described above and in D'Amour et al. 2005 and 2006 supra. […] Samples of undifferentiated hESCs were taken prior to the start of the differentiation procedure. Plates were briefly washed with 2 ml of PBS either containing Ca^2+ or Mg^2+ or without Ca^2+ and Mg^2+ (PBS^−/−). In addition, the one plate which was washed with PBS^−/− also received ethylenediamine tetraacetic acid (EDTA) at 0.075 mM to reduce the concentration of Ca^2+ ions present in the media.

`O=C(O)CN(CCN(CC(=O)O)CC(=O)O)CC(=O)O` [EDTA, ethylenediamine tetraacetic acid]: the “increase in expression for the DE marker (CER)” value was “three-fold” and the “increase in gene expression for mesendoderm markers (BRACH, NODAL)” value is reported as “two-fold”.

The record behind these values is patent US7993916B2, “Methods for increasing definitive endoderm production” (Viacyte, Inc., priority 2007, dated 2011).
